What is called pIC50 is −log10 of the IC50, conventionally taken in molar units.

Structures are written as SMILES. pIC50: −log10 of the molar value.

This passage reports IC50 results from US7419984B2, “Pyrimidines and uses thereof” (Cell Therapeutics, Inc., priority 2002, dated 2008).

The target of this test is T1, human LPAAT-β (Homo sapiens, UniProt O15120).
T1 construct: the full-length human LPAAT-β cDNA was amplified by PCR; poly-histidine tag (N); made in house; host or cells: Sf9 insect cells (baculovirus, pFastBac HTc); the membrane fraction was used as the enzyme
T1 sequence (O15120 24-278): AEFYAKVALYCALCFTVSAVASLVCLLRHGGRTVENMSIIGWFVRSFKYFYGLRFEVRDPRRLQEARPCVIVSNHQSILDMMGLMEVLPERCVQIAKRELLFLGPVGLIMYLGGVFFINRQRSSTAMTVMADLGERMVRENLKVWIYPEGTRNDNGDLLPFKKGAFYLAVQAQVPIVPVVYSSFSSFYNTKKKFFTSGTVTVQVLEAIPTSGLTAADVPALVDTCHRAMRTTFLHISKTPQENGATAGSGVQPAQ
Description: LPAAT-β cell-free assay. It counts as biochemical. Conditions: Sf9 cell membrane overexpressing recombinant LPAAT-β. The method in brief: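 Membranes from Sf9 cells expressing His/myc-tagged full-length human LPAAT-β were used in HEPES-saline pH 7.5 with 1 mg/ml BSA. Compound was added from a 200 μM DMSO stock, and reaction with 18:1-CoA and sn-1-18:1 lysoPA (1 mM stocks) ran 25 min at RT. Released CoA was detected with DTNB at 405 nm; a radiometric variant used 200 μM [14C]18:1-CoA and 200 μM lysoPA.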
For `CCc1ccc(Cl)cc1-c1cc(Nc2ccc([N+](=O)[O-])cc2)nc(N)n1` [Example 169, 6-(5-Chloro-2-ethyl-phenyl)-N*-4*-(4-nitro-phenyl)-pyrimidine-2,4-diamine], the pIC50 was 7.03.

For the molecule `CCOC(=O)c1cccc(Nc2cc(-c3cc(Cl)ccc3Cl)nc(N)n2)c1` [Example 170, 3-[2-Amino-6-(2,5-dichloro-phenyl)-pyrimidin-4-ylamino]-benzoic acid ethyl ester], the pIC50 was 7.62.

With `CCOC(=O)c1cccc(Nc2cc(-c3cc(Br)ccc3OC)nc(N)n2)c1` [Example 171, 3-[2-Amino-6-(5-bromo-2-methoxy-phenyl)-pyrimidin4-ylamino]-benzoic acid ethyl ester], the pIC50 was 6.59.

`Cc1ccc(Cl)cc1-c1cc(Nc2ccc(Br)cc2)ncn1` [Example 172, (4-Bromo-phenyl)-[6-(5-chloro-2-methyl-phenyl)-pyrimidin-4-yl]-amine]: the pIC50 is 7.35.

For `C=CCOc1ccc(Cl)cc1-c1cc(Nc2ccc(Cl)cc2)nc(N)n1` [Example 174, 6-(2-Allyloxy-5-chloro-phenyl)-N*4*-(4-chloro-phenyl)-pyrimidine-2,4-diamine], the pIC50 is 8.05.

As for `CCc1ccc(Cl)cc1-c1cc(Nc2ccc(CCO)cc2)nc(N)n1` [Example 175, 2-{4-[2-amino-6-(5-chloro-2-ethyl-phenyl)-pyrimidin4-ylamino]-phenyl}-ethanol], the negative logarithm of the IC50 (pIC50) is 7.00.

Turning to `Cc1ccc(Cl)cc1-c1cc(Nc2ccc(CCO)cc2)ncn1` [Example 176, 2-{4-[6-(5-Chloro-2-methyl-phenyl)-pyrimidin-4-ylamino]-phenyl}-ethanol], the pIC50 was 7.22.

For `Nc1nc(Nc2ccc([N+](=O)[O-])cc2)cc(-c2cc(Br)ccc2OCc2ccccc2)n1` [Example 177, 6-(2-Benzyloxy-5-bromo-phenyl)-N*4*-(4-nitro-phenyl)-pyrimidine-2,4-diamine], the pIC50 was 8.70.

With `Nc1nc(Nc2ccc(Cl)cc2)cc(-c2cc(Br)ccc2OCc2ccc([N+](=O)[O-])cc2)n1` [Example 178, 6-[5-Bromo-2-(4-nitro-benzyloxy)-phenyl]-N*4*-(4-chloro-phenyl)-pyrimidine-2,4-diamine], the negative logarithm of the IC50 (pIC50) is 7.68.

As for `Nc1nc(Nc2ccc(Cl)c(C(F)(F)F)c2)cc(-c2cc(Cl)ccc2Cl)n1` [Example 179, N*4*-(4-Chloro-3-trifluoromethyl-phenyl)-6-(2,5-dichloro-phenyl)-pyrimidin-2,4-diamine], the pIC50 is 6.74.

With `CCOc1ccc(Br)cc1-c1cc(Nc2ccc(C(F)(F)F)cc2)ncn1` [Example 180, [6-(5-Bromo-2-ethoxy-phenyl)-pyrimidin-4-yl]-(4-trifluoromethyl-phenyl)-amine], the pIC50 was 6.80.

In the case of `CCOc1ccc(Br)cc1-c1cc(Nc2ccc(Br)cc2)ncn1` [Example 181, [6-(5-Bromo-2-ethoxy-phenyl)-pyrimidin-4-yl]-(4-bromo-phenyl)-amine], the negative logarithm of the IC50 (pIC50) is 7.40.

Consider `COc1ccccc1COc1ccc(Br)cc1-c1cc(Nc2ccc(Cl)cc2)nc(N)n1` [Example 182, 6-[5-Bromo-2-(2-methoxy-benzyloxy)-phenyl]-N*4*-(4-chloro-phenyl)-pyrimidine-2,4-diamine], for which the pIC50 is 8.40.

For the molecule `CCOc1ccc(Br)cc1-c1cc(Nc2ccc(C(=O)NO)cc2)nc(N)n1` [Example 183, 4-[2-Amino-6-(5-bromo-2-ethoxy-phenyl)-pyrimidin-4-ylamino]-N-hydroxy-benzamide], the pIC50 is 7.06.

Regarding `CNC(=O)c1cc(Nc2cc(-c3cc(Br)ccc3OC)nc(N)n2)ccc1Cl` [Example 184, 5-[2-Amino-6-(5-bromo-2-methoxy-phenyl)-pyrimidin4-ylamino]-2-chloro-N-methyl-benzamide], the pIC50 was 6.70.

With `COc1ccc(COc2ccc(Br)cc2-c2cc(Nc3ccc(Cl)cc3)nc(N)n2)cc1` [Example 185, 6-[5-Bromo-2-(4-methoxy-benzyloxy)-phenyl]-N*4*-(4-chloro-phenyl)-pyrimidine-2,4-diamine], the negative logarithm of the IC50 (pIC50) was 8.40.

As for `CCOc1ccc(Br)cc1-c1cc(Nc2ccc(C(N)=O)cc2)nc(N)n1` [Example 186, 4-[2-Amino-6-(5-bromo-2-ethoxy-phenyl)-pyrimidin4-ylamino]-benzamide], the pIC50 was 6.13.

On to `Nc1nc(Nc2ccc(Cl)cc2)cc(-c2cc(Br)ccc2Cl)n1` [Example 187, 6-(5-Bromo-2-chloro-phenyl)-N*4*-(4-chloro-phenyl)-pyrimidine-2,4-diamine], for which the pIC50 is 7.66.

Turning to `COc1ccccc1COc1ccc(Br)cc1-c1cc(Nc2ccc(C)cc2)nc(N)n1` [Example 188, 6-[5-Bromo-2-(2-methoxy-benzyloxy)-phenyl]-N*4*-p-tolyl-pyrimidine-2,4-diamine], the pIC50 is 7.68.

As for `Nc1nc(Nc2ccc(C(F)(F)F)cc2)cc(-c2cc(Br)ccc2Cl)n1` [Example 189, 6-(5-Bromo-2-chloro-phenyl)-N*4*-(4-trifluoromethyl-phenyl)-pyrimidine-2,4-diamine], the pIC50 was 7.10.

Consider `CCOc1ccc(Br)cc1-c1cc(Nc2ccc(Cl)cc2)ncn1` [Example 190, [6-(5-Bromo-2-ethoxy-phenyl)-pyrimidin4-yl]-(4-chloro-phenyl)-amine], for which the pIC50 was 7.52.

Consider `CCOc1ccc(Br)cc1-c1cc(Nc2ccc(CCO)cc2)ncn1` [Example 191, 2-{4-[6-(5-Bromo-2-ethoxy-phenyl)-pyrimidin-4-ylamino]-phenyl}-ethanol], for which the pIC50 was 7.70.

For the molecule `CCOc1ccc(Br)cc1-c1cc(Nc2ccc(F)cc2)ncn1` [Example 192, [6-(5-Bromo-2-ethoxy-phenyl)-pyrimidin4-yl]-(4-fluoro-phenyl)-amine], the pIC50 is 7.22.
